From PubChem BioAssay (NCI) come the findings set out here.

Where “and” joins values, the source holds several entries; their conditions need not be identical. Identical values can stand only once.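 1) Cells in 96-well plates. 2) Compound, 48 h, 5 concentrations. 3) Linear interpolation between surrounding doses. 4) Unreached endpoint = highest concentration. GI50 marks 50% less growth. Definition used: TGI = concentration required for complete inhibition of growth.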 Some results are limits rather than exact numbers.

Test systems include SF-268 CNS; SF-539 CNS; UACC-62 melanoma; OVCAR-8 ovarian; TK-10 renal; HCT-15 colon; HCC-2998 colon; MCF7 breast; BT-549 breast; RXF 393 renal.
Assay in all cases: growth of human tumour cells (NCI), 48 h

As to `Cc1cccc(N2C(=O)/C(=C/c3ccc(N(CCC#N)CCC#N)cc3C)N=C2c2cc([N+](=O)[O-])ccc2Cl)c1`, the TGI in the test on SF-268 CNS, with SF-539 CNS, in the test on UACC-62 melanoma, in the test on OVCAR-8 ovarian, with TK-10 renal and in the test with HCT-15 colon was above 100 µM throughout. For the same compound, in the test on HCC-2998 colon, the TGI is above 100 µM.

As to `CCC1(N2C(=O)c3c(F)c(F)c(F)c(F)c3C2=O)C(=O)NC(=O)N(c2ccccc2)C1=O` (configuration not stated), the GI50 with MCF7 breast was 2.21 µM; with SF-268 CNS, 3.66 µM; in the test on SF-539 CNS, 2.24 µM; with UACC-62 melanoma it was 1.41 µM; in the test with OVCAR-8 ovarian, 3.47 µM; with BT-549 breast, 2.1 µM. In addition, the GI50 in the test with TK-10 renal was 2.4 µM; in the test on HCT-15 colon, 2.32 µM; in the test on RXF 393 renal it was 2.75 µM. The TGI in the test on MCF7 breast stood at 17 µM; in the test on SF-268 CNS, 16 µM; in the test with SF-539 CNS, 4.33 µM; in the test on UACC-62 melanoma, 3.1 µM; in the test with OVCAR-8 ovarian, 11.4 µM; in the test on BT-549 breast, 4.76 µM. Further, the TGI in the test on TK-10 renal came out at 5.57 µM; in the test on HCT-15 colon it was 7.14 µM; with RXF 393 renal, 15.5 µM.

In the case of `CC(C)=C1CCC(CN2CCCC2)C1=O` (configuration not stated), the TGI in the test on SF-268 CNS was 65.7 µM; in the test on SF-539 CNS, above 100 µM; in the test on UACC-62 melanoma it was above 100 µM; with OVCAR-8 ovarian, above 100 µM; in the test on TK-10 renal, above 100 µM; in the test on HCT-15 colon, 35.5 µM. In addition, the TGI with HCC-2998 colon is 34.6 µM; in the test on RXF 393 renal, 39.5 µM.

For `O=C1CC2Sc3ccccc3N=C2N1c1ccc(Cl)cc1Cl` (configuration not stated), the TGI in the test on SF-268 CNS, with UACC-62 melanoma, in the test with OVCAR-8 ovarian, in the test with TK-10 renal, in the test on HCC-2998 colon and in the test with RXF 393 renal was above 100 µM in each case.

In the case of `CCOC(=N)CC(=O)NC(C)c1ccccc1` (configuration not stated), the TGI in the test on SF-268 CNS, in the test on SF-539 CNS, in the test with UACC-62 melanoma, in the test on OVCAR-8 ovarian, in the test with TK-10 renal and in the test on HCT-15 colon was above 100 µM in each case. Moreover, the TGI in the test on HCC-2998 colon and in the test with RXF 393 renal was above 100 µM in each case.

As to `CCCCCCCCCCCCCCCC(=O)N[C@H]1CCc2cc(OC)c(OC)c(OC)c2-c2ccc(SC)c(=O)cc21`, the GI50 was 1.63 µM in the test on SF-268 CNS; 1.24 µM in the test with SF-539 CNS; 1.21 µM in the test on UACC-62 melanoma; 3.31 µM with OVCAR-8 ovarian; 27.9 µM with TK-10 renal; 1.54 µM in the test with HCT-15 colon. Also, in the test on HCC-2998 colon, the GI50 was 2.42 µM. The TGI with SF-268 CNS was 7.59 µM and 10.9 µM; with SF-539 CNS, 2.08 µM and 3.64 µM; in the test with UACC-62 melanoma, 13.4 µM and 11.8 µM; in the test on OVCAR-8 ovarian, 8.92 µM and 12.6 µM; with TK-10 renal, 35.8 µM and > 100 µM; in the test on HCT-15 colon, 5.01 µM and 4.04 µM. The TGI was 1.87 µM and 6.82 µM in the test with HCC-2998 colon; 14.8 µM in the test on RXF 393 renal.

Turning to `O=C1/C(=C/c2ccccc2)CN(C(=O)Oc2ccc([N+](=O)[O-])cc2)C/C1=C\c1ccccc1`, the GI50 with SF-268 CNS was 3.11 µM; in the test on UACC-62 melanoma it was 3.81 µM; with OVCAR-8 ovarian, 1.86 µM; in the test with HCT-15 colon, 2.74 µM; with HCC-2998 colon it was 1.33 µM; with RXF 393 renal, 1.59 µM. Further, the TGI is 3.74 µM and 4.18 µM in the test with OVCAR-8 ovarian; 5.63 µM in the test on HCT-15 colon; 5.99 µM and 3.3 µM in the test on HCC-2998 colon; 4.51 µM with RXF 393 renal.

As to `CCOC(=O)NNC(=O)NC12CC3CC(CC(C3)C1)C2`, the TGI in the test on SF-268 CNS, in the test with SF-539 CNS, with UACC-62 melanoma, with OVCAR-8 ovarian, in the test on TK-10 renal and in the test on HCT-15 colon was above 100 µM in each case. Besides, the TGI with HCC-2998 colon and in the test with RXF 393 renal was above 100 µM in each case.

As to `C/C(=N/Nc1ccc([N+](=O)[O-])cc1[N+](=O)[O-])C(CC(C(=O)Nc1ccccc1C)/C(C)=N\Nc1ccc([N+](=O)[O-])cc1[N+](=O)[O-])C(=O)Nc1ccccc1C` (configuration not stated), the TGI was 23.7 µM in the test on SF-268 CNS; 25.8 µM with SF-539 CNS; 69.4 µM in the test on UACC-62 melanoma; 14 µM in the test on OVCAR-8 ovarian; 60.1 µM in the test with TK-10 renal; above 63.5 µM with HCT-15 colon. Moreover, the TGI came to 60.8 µM in the test on HCC-2998 colon and 24.3 µM in the test with RXF 393 renal.

Take `CC[C@@]1(O)C(=O)OCc2c1cc1n(c2=O)Cc2cc3c(NC(C)=O)c(O)ccc3nc2-1`: the GI50 in the test with SF-268 CNS is 0.417 µM; in the test with SF-539 CNS, 0.388 µM; with UACC-62 melanoma it was 0.272 µM; in the test with OVCAR-8 ovarian, 1.54 µM; in the test on TK-10 renal, above 71.4 µM; with HCT-15 colon, 18 µM. Moreover, the figures for the GI50 in the test with HCC-2998 colon and in the test with RXF 393 renal were 8.21 µM and 2.34 µM, respectively. Besides, the TGI in the test with SF-268 CNS was above 52.3 µM; with SF-539 CNS, 1.96 µM; in the test with UACC-62 melanoma it was 2.71 µM; with OVCAR-8 ovarian, above 47.7 µM; with TK-10 renal, above 100 µM; with HCT-15 colon, above 100 µM. Also, the figures for the TGI in the test on HCC-2998 colon and in the test on RXF 393 renal were 47.1 µM and 20.2 µM, respectively.

`Cc1cc2c(cc1Cl)SC1=NN(C)C(c3ccccc3O)N1S2(=O)=O` (configuration not stated): the GI50 in the test on MCF7 breast is above 100 µM; in the test with SF-268 CNS, 61.6 µM; in the test on SF-539 CNS it was 32.1 µM; in the test with UACC-62 melanoma it was 73.8 µM; in the test with OVCAR-8 ovarian, 68 µM; in the test on BT-549 breast, 95.2 µM. In addition, the GI50 was 82.1 µM in the test with TK-10 renal, 54 µM with HCT-15 colon and 65.5 µM in the test on HCC-2998 colon. The TGI in the test on MCF7 breast, in the test with SF-268 CNS, in the test on SF-539 CNS, in the test on UACC-62 melanoma, with OVCAR-8 ovarian and in the test on BT-549 breast was above 100 µM in each case. Also, the TGI in the test on TK-10 renal, in the test on HCT-15 colon and with HCC-2998 colon was above 100 µM in each case.
